{
  "source": "paper PMC12074479",
  "about": "“Design, Synthesis, and Biological Evaluation of New Analogs of Aurein 1.2 Containing Non-Proteinogenic Amino Acids” (Molecules, 2025)",
  "key": {"BALB 3T3 cells": {"tested_on": "BALB 3T3 cells", "experiment": "in vitro", "procedure": "(§1) An in vitro BALB 3T3 Neutral Red Uptake assay was used to determine the cytotoxicity/phototoxicity of the peptides. Cytotoxicity of peptide analogs was calculated as a percentage relative to the negative control. […] Photo irritation factor (PIF) was used to assess the phototoxic potential of the peptide analogs. The PIF factor represents the ratio between the CC50 values of dark (non-irradiated or—Irr) and irradiated (+Irr) microplates, PIF = (CC50 − Irr)/(CC50 + Irr).\n(§2) Mouse embryonic fibroblasts (BALB 3T3) were used to perform the cytotoxicity and phototoxicity tests. The tests were performed by OECD Guidelines for the Testing of Chemicals, Section 4, Test No. 432. Cells were plated at 1 × 10^4 cells/well in 96-well plates. Cells were incubated in a thermostat for 24 h. Then, the test peptides were added at various working concentrations (4–1000 μM). In the phototoxicity test, 96-well plates were irradiated with a dose of 2.4 J/cm^2 using a solar light simulator Helios-iO (SERIC Ltd., Tokyo, Japan). Cell viability was measured using the BALB 3T3 neutral red uptake test. Cytotoxicity is presented as % relative to the negative control."}, "in vitro": {"experiment": "in vitro", "conditions": "mouse, Mean CC50 ± SD", "procedure": "as §1, §2"}, "MCF-12F": {"tested_on": "MCF-12F", "experiment": "cells", "conditions": "72 h", "procedure": "(§3) The peptides were studied for antiproliferative activity with an MTT-dye reduction assay. Cell cultures were incubated with the test peptides in twofold increasing concentrations (from 2 to 500 μM) for 72 h.\n(§4) The antiproliferative activity of the peptides was determined in normal epithelial cells (MCF-12F) and tumor cells (MCF-7 and MDA-MB-231) by MTT-assay. Cells were plated 1 × 10^3 cells/100 µL/well of 96-well plates and incubated in a thermostat under standard conditions for 24 h. Cells were then incubated with the tested peptide analogs for 72 h in different concentrations (from 2 to 500 µM). The optical density of the formazan was measured at λ = 540 nm using a microplate reader. Antiproliferative activity was expressed as % from negative control. […] The statistical analysis of the results was performed using one-way ANOVA followed by Bonferroni’s post hoc test by GraphPad Prism 8 software (San Diego, CA, USA)."}, "MCF-7": {"tested_on": "MCF-7", "experiment": "cells", "procedure": "as §3, §4"}, "MDA-MB-231": {"tested_on": "MDA-MB-231", "experiment": "cells", "procedure": "as §3, §4"}, "[1]": {"tested_on": "Escherichia coli NBIMCC K12 407", "procedure": "(§5) The antimicrobial activity of the 7 new analogs of aurein 1.2 was evaluated by determining the MIC and MBC against Gram-positive strain Bacillus subtilis 3562 and Gram-negative strain Escherichia coli K12 407. The MIC of the newly synthesized analogs was assessed by applying a broth microdilution method, whereas their MBC was determined by using a spread plate method. All experiments were performed in triplicate.\n(§6) Bacillus subtilis NBIMCC 3562 and Escherichia coli NBIMCC K12 407 were used as test microorganisms and were purchased from the National Bank for Industrial Microorganisms and Cell Cultures (NBIMCC, Sofia, Bulgaria). Exponential cultures were obtained in Nutrient broth (NB, HiMedia, Mumbai, India) for B. subtilis NBIMCC 3562 and Luria-Bertani (LB, HiMedia, Mumbai, India) for E. coli NBIMCC K12 407, after cultivation in an incubator shaker ES-20/60 (Biosan, Latvia) at 30/37 °C for 24 h. Then, the turbidity of the microbial cultures was adjusted to the 0.5 McFarland standard using a Grant Bio DEN-1B Densitometer (Grant Instruments, Royston, UK).\n(§7) The antimicrobial activity of the obtained aurein 1.2 analogs was evaluated using the broth microdilution method, recommended by the Clinical and Laboratory Standards Institute (CLSI), to determine the minimum inhibitory concentration (MIC) of the peptides against B. subtilis NBIMCC 3562 and E. coli NBIMCC K12 407. All peptides were previously dissolved in 10% EtOH/H2O, and their 10 mg/mL stock solutions were stored at −20 °C. Bacterial cultures, previously adjusted to 0.5 McFarland standard, were incubated in the presence of different peptide concentrations (0–320 µg/mL) in 96-well polystyrene microplates (Deltalab S.L., Barcelona, Spain) at 30/37 °C for 24 h. The lowest concentration of each peptide, which inhibited bacterial growth, was considered as MIC. In addition, a drop of 20 µL of the 24 h inhibitory concentration test samples was spotted on the corresponding solid media to determine the minimum bactericidal concentration (MBC). […] All experiments were performed in triplicate."}, "[2]": {"tested_on": "Bacillus subtilis NBIMCC 3562", "procedure": "as §5, §6, §7"}, "[3]": {"conditions": "+Irr, BALB 3T3 cells, irradiated 2.4 J/cm^2, NRU"}, "[4]": {"conditions": "−Irr, BALB 3T3 cells, non-irradiated (dark), NRU"}, "[5]": {"conditions": "SI = IC50 (normal cells)/IC50 (tumor cells), normal cells MCF-12F"}, "[6]": {"conditions": "broth microdilution, 0–320 µg/mL, 24 h, NI = no inhibition monitored"}},
  "note": "Read-outs that look alike come from different tables or passages of the source. Where a SMILES comes first, the peptide text is derived from it. [ ]: non-standard residue; d: D form. Orn = NCCC[C@H](N)C(=O)O; Dab = NCC[C@H](N)C(=O)O",
  "data": [
    {"smiles": "CN(C)CCCN1c2ccccc2Sc2ccc(Cl)cc21", "note": "[Chlorpromazine, reference compound]", "values": [
      {"measurement": "PIF (Photo Irritation Factor)", "setting": "BALB 3T3 cells; mouse", "result": 6.06},
      {"measurement": "CC50", "setting": "in vitro; +Irr", "result": "2.04 ± 0.07", "unit": "µM"}
    ]},
    {"smiles": "CC[C@H](C)[C@H](NC(=O)[C@H](CCCCN)NC(=O)[C@H](CCCN)NC(=O)[C@@H](NC(=O)[C@@H](NC(=O)[C@H](CC(=O)O)NC(=O)[C@H](Cc1ccccc1)NC(=O)[C@H](CC(C)C)NC(=O)CN)[C@@H](C)CC)[C@@H](C)CC)C(=O)N[C@@H](C)C(=O)N[C@@H](CCC(=O)O)C(=O)N[C@@H](CO)C(=O)N[C@@H](Cc1ccccc1)C(N)=O", "note": "[EH [Orn]^7, Gly-Leu-Phe-Asp-Ile-Ile-Orn^7-Lys-Ile-Ala-Glu-Ser-Phe-NH2] (H-GLFDII[Orn]KIAESF-NH2)", "values": [
      {"measurement": "CC50", "setting": "in vitro; [3]", "result": "102 ± 7.4", "unit": "µM"},
      {"measurement": "CC50", "setting": "in vitro; [4]", "result": "134 ± 7.4", "unit": "µM"}
    ]},
    {"smiles": "COc1cccc2c1C(=O)c1c(O)c3c(c(O)c1C2=O)C[C@@](O)(C(=O)CO)C[C@@H]3O[C@H]1C[C@H](N)[C@H](O)[C@H](C)O1", "note": "[Doxorubicin, reference compound]", "values": [
      {"measurement": "IC50", "setting": "MCF-12F; Homo sapiens, read-out: Mean IC50 ± SD, MCF-12F", "result": "0.601 ± 0.059", "unit": "µM"},
      {"measurement": "IC50", "setting": "MCF-7; Homo sapiens, MCF7, 72 h, read-out: Mean IC50 ± SD, MCF-7", "result": "0.68 ± 0.031", "unit": "µM"},
      {"measurement": "SI, MCF-7", "setting": "MCF-7; [5]", "result": 0.88},
      {"measurement": "IC50", "setting": "MDA-MB-231; Homo sapiens, MDA-MB-231, 72 h, read-out: Mean IC50 ± SD, MDA-MB-231", "result": "2.53 ± 0.11", "unit": "µM"},
      {"measurement": "SI, MDA-MB-231", "setting": "MDA-MB-231; [5]", "result": 0.237}
    ]},
    {"smiles": "CC[C@H](C)[C@H](NC(=O)[C@H](CCCN)NC(=O)[C@H](CCCN)NC(=O)[C@@H](NC(=O)[C@@H](NC(=O)[C@H](CC(=O)O)NC(=O)[C@H](Cc1ccccc1)NC(=O)[C@H](CC(C)C)NC(=O)CN)[C@@H](C)CC)[C@@H](C)CC)C(=O)N[C@@H](C)C(=O)N[C@@H](CCC(=O)O)C(=O)N[C@@H](CO)C(=O)N[C@@H](Cc1ccccc1)C(N)=O", "note": "[EH [Orn]^7,8, Gly-Leu-Phe-Asp-Ile-Ile-Orn^7-Orn^8-Ile-Ala-Glu-Ser-Phe-NH2] (H-GLFDII[Orn][Orn]IAESF-NH2)", "values": [
      {"measurement": "IC50", "setting": "MCF-12F; read-out: Mean IC50 ± SD, MCF-12F, MTT, normal cell line", "result": "112 ± 7.14", "unit": "µM"},
      {"measurement": "IC50", "setting": "MCF-7; read-out: Mean IC50 ± SD, MCF-7, MTT, 72 h", "result": "88.9 ± 3.14", "unit": "µM"},
      {"measurement": "IC50", "setting": "MDA-MB-231; read-out: Mean IC50 ± SD, MDA-MB-231, MTT, 72 h", "result": "123 ± 6.47", "unit": "µM"},
      {"measurement": "PIF (Photo Irritation Factor)", "setting": "BALB 3T3 cells; PIF = (CC50 −Irr)/(CC50 +Irr), PIF < 2 not phototoxic, 2 < PIF < 5 possible phototoxicity, PIF > 5 phototoxic", "result": 1.55},
      {"measurement": "CC50", "setting": "in vitro; [3]", "result": "101 ± 3.7", "unit": "µM"},
      {"measurement": "CC50", "setting": "in vitro; [4]", "result": "157 ± 6.38", "unit": "µM"},
      {"measurement": "MIC, Escherichia coli NBIMCC K12 407", "setting": "[1]; [6]", "result": 80, "unit": "µg/mL"},
      {"measurement": "MBC, Bacillus subtilis NBIMCC 3562", "setting": "[2]; 0–320 µg/mL, NI = no inhibition monitored", "result": 320, "unit": "µg/mL"},
      {"measurement": "MIC, Bacillus subtilis NBIMCC 3562", "setting": "[2]; [6]", "result": 80, "unit": "µg/mL"}
    ]},
    {"smiles": "CC[C@H](C)[C@H](NC(=O)[C@H](CCN)NC(=O)[C@H](CCN)NC(=O)[C@@H](NC(=O)[C@@H](NC(=O)[C@H](CC(=O)O)NC(=O)[C@H](Cc1ccccc1)NC(=O)[C@H](CC(C)C)NC(=O)CN)[C@@H](C)CC)[C@@H](C)CC)C(=O)N[C@@H](C)C(=O)N[C@@H](CCC(=O)O)C(=O)N[C@@H](CO)C(=O)N[C@@H](Cc1ccccc1)C(N)=O", "note": "[EH [Dab]^7,8, Gly-Leu-Phe-Asp-Ile-Ile-Dab^7-Dab^8-Ile-Ala-Glu-Ser-Phe-NH2] (H-GLFDII[Dab][Dab]IAESF-NH2)", "values": [
      {"measurement": "IC50", "setting": "MCF-12F", "result": "168 ± 2.54", "unit": "µM"},
      {"measurement": "IC50", "setting": "MCF-7; 72 h", "result": "92.2 ± 1.8", "unit": "µM"},
      {"measurement": "IC50", "setting": "MDA-MB-231; 72 h", "result": "164 ± 2.51", "unit": "µM"},
      {"measurement": "PIF (Photo Irritation Factor)", "setting": "BALB 3T3 cells", "result": 1.11},
      {"measurement": "Toxicity compared to the parent peptide aurein 1.2", "setting": "BALB 3T3 cells; BALB 3T3 cells, fold lower toxicity", "result": "two to four times lower toxicity"},
      {"measurement": "CC50", "setting": "in vitro; +Irr", "result": "181.1 ± 1.81", "unit": "µM"},
      {"measurement": "MIC, Escherichia coli NBIMCC K12 407", "setting": "[1]; K12, 24 h", "result": 160, "unit": "µg/mL"},
      {"measurement": "MIC, Bacillus subtilis NBIMCC 3562", "setting": "[2]; NBIMCC 3562, 24 h", "result": 160, "unit": "µg/mL"}
    ]}
  ]
}
